This is an account of results in patent US20030134303A1, “Adenine nucleotide-binding protein-directed probes, and methods of their synthesis and use” (ActivX Biosciences, Inc,, priority 2001, published 2003).

What all share (assay type): binding
Experiment [1] has as its target T1, GST-fusion protein of the insulin receptor kinase domain (GST-InsRK) (Homo sapiens, UniProt P06213).
T1 construct: GST-fusion protein of the insulin receptor kinase domain (GST-InsRK)

In experiment [2] the target is T2, epidermal growth factor receptor (EGFR) (Homo sapiens, UniProt P00533).
T2 construct: Plasma membranes containing the epidermal growth factor receptor (EGFR) were prepared from the A431 human epidermoid cancer cell line; endogenous in cells; host or cells: A431 human epidermoid cancer cells (plasma membrane preparation, Triton X-100 solubilized)
The experiment is described as follows: EGF receptor tyrosine kinase labeling in A431 plasma membranes, MS identification of labeled peptide. As to conditions: probe 20 μM, 3 hours, solubilized A431 plasma membranes, anti-TAMRA capture, trypsin. As for the experimental part: Plasma membranes containing the epidermal growth factor receptor (EGFR) were prepared from the A431 human epidermoid cancer cell line. Approximately 1×10^8 A431 cells were resuspended in 10 mls 20 mM HEPES, pH 7.5, 0.14M NaCl, 5 mM KCl, 0.1 mM EDTA, 0.1% glucose, and 0.035% sodium bicarbonate. The cells were lysed by Dounce homogenization, and the lysate was diluted into 80 mls of 20 mM sodium borate, pH 10.2, 0.1 mM EDTA. This mixture was placed on a rocker at 4° C. for 10 minutes, and the membranes from the mixture were isolated by centrifugation at 16,000 rpm for 30 minutes in a Beckman JA17 rotor. The plasma membranes were further purified by centrifugation over a 40%/30% sucrose cushion at 30000 rpm for 60 minutes in a Beckman MLS 50 swinging bucket rotor. The plasma membranes were collected at the aqueous—sucrose interface, and solubilized in buffer containing 20 mM HEPES, pH 7.5, 50 mM NaCl, 20 mM MgCl2, 0.05 mg/ml BSA, and 0.1% Triton-X-100.
Solubilized A431 plasma membranes (˜0.5 mg total protein) were incubated with (5)(20 μM) for 3 hours. […]
The proteins in this band were trypsinized, and the tryptic peptides were extracted. […] After elution from the beads the captured fragment was analyzed by mass spectroscopy (MS) to identify the peptide sequence: […]

Experiment [3] has as its target EGF receptor tyrosine kinase (Homo sapiens, UniProt P00533). In words: Effect of inhibitors on EGF receptor tyrosine kinase labeling by ANBP (5) in A431 plasma membranes. As to conditions: inhibitor 50 μM, 5 minutes pretreatment, then AX0231 20 μM for 60 minutes; compared with 90% by the EGF inhibitor at 5 μM.
Description: After 60 minutes, the reaction was quenched by the addition of gel sample buffer. The samples were electrophoresed on a 10% SDS-PAGE gel. The gel was then scanned on a FMBIO2 gel scanner, and the intensity of labeling of the EGFR was quantitated by ImageAnalysis.

T1 sequence (P06213 1023-1298 limits assumed): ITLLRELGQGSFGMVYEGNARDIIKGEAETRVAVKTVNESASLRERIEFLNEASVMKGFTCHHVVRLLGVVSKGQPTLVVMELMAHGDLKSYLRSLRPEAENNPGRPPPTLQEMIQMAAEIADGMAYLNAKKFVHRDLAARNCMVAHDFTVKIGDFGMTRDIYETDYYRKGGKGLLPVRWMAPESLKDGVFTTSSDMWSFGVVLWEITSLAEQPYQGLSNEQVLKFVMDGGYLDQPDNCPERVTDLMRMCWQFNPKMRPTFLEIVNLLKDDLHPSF

Consider “5′-FSB-amido-2′(3′)-(2-TAMRA-amidoethylcarbamoyl)adenosine [Compound 5]”, for which, in experiment [1], the “labeling of GST-InsRK by probe” value is listed as “labeled”. Besides, the “site of labeling in EGFR (probe-labeled tryptic peptide, K*)” value in experiment [2] was “located within the active site of the protein”.

Turning to `COC(=O)c1ccc(NCc2cc(O)ccc2O)cc1` [AG957], the “inhibition of probe labeling of EGFR” value in experiment [3] was “significantly less inhibition”.
